Test [1] in a line: cytotoxicity in MIN6 insulinoma cells, dose response, cytotoxicity control, cell-based, mouse insulinoma (AID 2122).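 Also: confirmatory high-throughput counterscreen run to flag cytotoxic compounds; mouse MIN-6 beta cells carrying an insulin promoter eGFP reporter.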 It is filed as functional.
The target in test [2] is T1, High affinity choline transporter 1 (Homo sapiens, UniProt Q9GZV3).
T1 sequence (Q9GZV3 whole entry): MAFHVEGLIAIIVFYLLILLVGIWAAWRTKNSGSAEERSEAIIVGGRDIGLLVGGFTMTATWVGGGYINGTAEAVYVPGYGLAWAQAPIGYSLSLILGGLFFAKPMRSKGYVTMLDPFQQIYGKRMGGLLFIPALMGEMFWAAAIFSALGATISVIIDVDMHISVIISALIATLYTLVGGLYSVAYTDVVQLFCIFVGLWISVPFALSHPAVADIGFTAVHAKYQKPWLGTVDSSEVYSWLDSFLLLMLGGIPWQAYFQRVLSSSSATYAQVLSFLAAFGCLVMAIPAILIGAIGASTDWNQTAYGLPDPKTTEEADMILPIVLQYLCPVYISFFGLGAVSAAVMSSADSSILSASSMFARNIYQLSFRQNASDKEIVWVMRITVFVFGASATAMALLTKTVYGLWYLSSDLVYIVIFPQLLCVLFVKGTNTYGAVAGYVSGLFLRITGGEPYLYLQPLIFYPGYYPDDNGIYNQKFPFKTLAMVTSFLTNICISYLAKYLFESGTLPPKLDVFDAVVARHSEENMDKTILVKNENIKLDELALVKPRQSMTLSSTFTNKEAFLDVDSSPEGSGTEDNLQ
The test is described as follows: CHT inhibitors, dose response, cell-based, 5-point CRC, membrane potential dye (AID 504840). The format is functional.

Test [3] is described as follows: insulin promoter down-regulators in MIN6 cells, imaging, high-content screening, mouse beta cells (AID 1628). It is filed as functional.
For test [4], the target named is Ras and Rab interactor 1/Tyrosine-protein kinase ABL1 (Homo sapiens, UniProt P00519+Q13671). The format is functional.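 Also: biochemical TR-FRET dose-response test measuring inhibition of binding between Rin1 and Abl proteins.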
The target in test [5] is Adenosylmethionine-8-amino-7-oxononanoate aminotransferase (Mycobacterium tuberculosis, UniProt P9WQ81). Nature of the test: Mycobacterium tuberculosis BioA enzyme inhibitor Measured in Biochemical System Using Plate Reader - 2163-02_Inhibitor_Dose_CherryPick_Activity. It is filed as functional, Mycobacterium tuberculosis UT205.
The target in the next test is Melanocortin receptor 4 (Homo sapiens, UniProt P32245). The format is functional, cell-based.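 Also: Cell-based assay with luminescence read-out, confirmatory dose-response testing for agonist activity of biased ligands at MC4R; human U2OS cells with tagged receptor and beta-arrestin; potency of agonists that increase receptor coupling to beta-arrestin.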
Test [6] has as its target T2, Insulin-degrading enzyme (Homo sapiens, UniProt P14735).
T2 sequence (P14735 whole entry): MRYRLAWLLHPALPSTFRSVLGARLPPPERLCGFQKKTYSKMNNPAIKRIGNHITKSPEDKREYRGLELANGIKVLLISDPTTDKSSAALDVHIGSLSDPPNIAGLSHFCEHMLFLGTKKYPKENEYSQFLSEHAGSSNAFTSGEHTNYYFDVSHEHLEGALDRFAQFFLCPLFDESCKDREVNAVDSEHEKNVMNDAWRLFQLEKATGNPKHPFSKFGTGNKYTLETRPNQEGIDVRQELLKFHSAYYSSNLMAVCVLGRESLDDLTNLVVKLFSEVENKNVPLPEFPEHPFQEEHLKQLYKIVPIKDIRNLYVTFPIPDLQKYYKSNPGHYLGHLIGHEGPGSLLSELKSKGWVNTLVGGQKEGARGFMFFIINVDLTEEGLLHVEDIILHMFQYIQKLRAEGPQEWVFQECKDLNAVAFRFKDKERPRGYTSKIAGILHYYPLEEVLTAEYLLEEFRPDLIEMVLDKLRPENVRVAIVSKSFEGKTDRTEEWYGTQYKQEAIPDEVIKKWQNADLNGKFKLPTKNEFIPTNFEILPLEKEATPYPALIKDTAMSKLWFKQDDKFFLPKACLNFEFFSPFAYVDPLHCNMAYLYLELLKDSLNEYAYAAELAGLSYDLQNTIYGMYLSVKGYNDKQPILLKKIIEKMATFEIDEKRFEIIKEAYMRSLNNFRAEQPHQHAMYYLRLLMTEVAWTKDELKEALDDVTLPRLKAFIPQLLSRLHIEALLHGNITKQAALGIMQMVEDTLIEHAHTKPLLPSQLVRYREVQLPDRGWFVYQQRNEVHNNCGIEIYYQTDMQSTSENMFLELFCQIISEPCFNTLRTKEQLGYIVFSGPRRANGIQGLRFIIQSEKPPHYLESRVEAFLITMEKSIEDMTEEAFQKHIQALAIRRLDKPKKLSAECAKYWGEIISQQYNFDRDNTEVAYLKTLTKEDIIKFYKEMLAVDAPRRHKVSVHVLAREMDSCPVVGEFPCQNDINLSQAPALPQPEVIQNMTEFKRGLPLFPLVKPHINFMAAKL
Nature of the test: activators of endogenous IDE in HEK cells, dose response, cell-based, fluorescence polarization (AID 588439). It is filed as functional. On the technique in general: Fluorescence polarisation rises when a labelled molecule tumbles more slowly, as on binding a larger partner.

Test [7] relates to HEK293. Nature of the test: HEK cell cytotoxicity by LDH release, dose response, cytotoxicity control for IDE activator project, fluorescence, HEK cells (AID 588440).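 Also: cytotoxicity by LDH release measuring loss of membrane integrity.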 The format is functional, cell-based. The settings on record: Homo sapiens. In general terms: LDH leaks from cells whose membrane has failed.
Test [8] has as its system HEK293. Nature of the test: optical interference in Abeta FP readout, dose response, artefact control for IDE activator project, biochemical, fluorescence polarization (AID 588442). The format is functional, cell-based. The settings on record: Homo sapiens.
For test [9], the target named is T2, Insulin-degrading enzyme. The test is described as follows: activators of recombinant IDE enzyme, dose response, counter-screen for IDE activator project, biochemical, fluorescence polarization (AID 588681).
Test [10] is described as follows: A Cell Based Secondary Assay To Explore Cytotoxicity of Compounds that Sensitize Mycobacterium Tuberculosis to Beta-Lactam Antibiotics. It is filed as functional.
Test [11] is described as follows: CAL PDZ domain peptide-binding inhibitors, dose response, biochemical, fluorescence polarization, untagged CAL PDZ, cherry-pick, set 2 (AID 602254). The format is functional.
Test [12] has as its target T1, High affinity choline transporter 1. The test is described as follows: CHT inhibitors, dose response, cell-based, 10-point CRC, membrane potential dye (AID 588401).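 Also: membrane potential dye fluorescence of choline-evoked depolarization via CHT.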 The format is functional.
A short description of test [13]: AlphaScreen signal interference compounds, dose response, artefact control for ARNT-TACC3 interaction inhibitor project, biochemical, luminescence, cherry-pick (AID 651705).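 Also: AlphaScreen bead proximity signal that flags compounds interfering with the detection technology; potency reflects signal decrease which marks the compound as an assay artifact.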 The format is functional. Background: Alpha assays give light when donor and acceptor beads are brought close together.
Test [14] deals with T3, Sentrin-specific protease 8 (Homo sapiens, UniProt Q96LD8).
T3 sequence (Q96LD8 whole entry): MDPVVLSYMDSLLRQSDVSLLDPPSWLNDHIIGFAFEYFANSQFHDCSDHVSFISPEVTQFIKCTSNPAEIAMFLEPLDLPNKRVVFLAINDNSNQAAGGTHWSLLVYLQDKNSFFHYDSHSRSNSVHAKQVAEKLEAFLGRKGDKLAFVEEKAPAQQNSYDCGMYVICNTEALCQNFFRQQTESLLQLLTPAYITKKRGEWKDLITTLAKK
It is filed as functional.

Test [15] deals with T3, Sentrin-specific protease 8. The format is functional. This is another data set of the same source.
The target in test [16] is Tyrosine-protein phosphatase non-receptor type 5 (Homo sapiens, UniProt P54829). Nature of the test: STEP phosphatase inhibitors, confirmation, biochemical, fluorescence intensity, uHTS hits (AID 602372). The format is functional. The settings on record: read-out: IC50_Mean.
Test [17] concerns the target Tyrosine-protein phosphatase non-receptor type 11 (Homo sapiens, UniProt Q06124). The test is described as follows: SHP2 phosphatase inhibition, dose response, selectivity assay for STEP inhibitor project, biochemical (AID 602367). It is filed as functional. The following applies: read-out: IC50_Mean.
Test [18] addresses T4, Carboxy-terminal domain RNA polymerase II polypeptide A small phosphatase 1 (Homo sapiens, UniProt Q9GZU7).
T4 sequence (Q9GZU7 whole entry): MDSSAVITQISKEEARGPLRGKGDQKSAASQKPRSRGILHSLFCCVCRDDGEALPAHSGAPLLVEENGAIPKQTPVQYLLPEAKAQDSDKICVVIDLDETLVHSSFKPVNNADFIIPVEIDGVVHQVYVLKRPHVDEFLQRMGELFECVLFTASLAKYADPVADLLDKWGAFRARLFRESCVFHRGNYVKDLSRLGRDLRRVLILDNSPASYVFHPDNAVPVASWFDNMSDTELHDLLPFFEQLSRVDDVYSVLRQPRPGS
Nature of the test: inhibitors of CTDSP1, concentration-response testing, biochemical assay, absorbance-based, actives from ultra-high-throughput screening (AID 540297). The format is functional.

Test [19] has as its target Dual specificity protein phosphatase 3 (Homo sapiens, UniProt P51452). Nature of the test: VHR phosphatase inhibition, dose response, selectivity assay for STEP inhibitor project, biochemical (AID 602374). The format is functional. The following applies: read-out: IC50_Mean.
Test [20] deals with T5, Low molecular weight phosphotyrosine protein phosphatase (Homo sapiens, UniProt P24666).
T5 sequence (P24666 whole entry): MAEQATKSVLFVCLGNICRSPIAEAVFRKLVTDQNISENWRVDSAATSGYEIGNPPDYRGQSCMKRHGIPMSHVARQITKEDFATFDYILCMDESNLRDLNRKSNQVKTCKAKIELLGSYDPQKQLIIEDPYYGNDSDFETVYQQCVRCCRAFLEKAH
The format is functional. The following applies: read-out: IC50_Mean.

The target in test [21] is T6, Tyrosine-protein phosphatase non-receptor type 22 (Homo sapiens, UniProt Q9Y2R2).
T6 sequence (Q9Y2R2 whole entry): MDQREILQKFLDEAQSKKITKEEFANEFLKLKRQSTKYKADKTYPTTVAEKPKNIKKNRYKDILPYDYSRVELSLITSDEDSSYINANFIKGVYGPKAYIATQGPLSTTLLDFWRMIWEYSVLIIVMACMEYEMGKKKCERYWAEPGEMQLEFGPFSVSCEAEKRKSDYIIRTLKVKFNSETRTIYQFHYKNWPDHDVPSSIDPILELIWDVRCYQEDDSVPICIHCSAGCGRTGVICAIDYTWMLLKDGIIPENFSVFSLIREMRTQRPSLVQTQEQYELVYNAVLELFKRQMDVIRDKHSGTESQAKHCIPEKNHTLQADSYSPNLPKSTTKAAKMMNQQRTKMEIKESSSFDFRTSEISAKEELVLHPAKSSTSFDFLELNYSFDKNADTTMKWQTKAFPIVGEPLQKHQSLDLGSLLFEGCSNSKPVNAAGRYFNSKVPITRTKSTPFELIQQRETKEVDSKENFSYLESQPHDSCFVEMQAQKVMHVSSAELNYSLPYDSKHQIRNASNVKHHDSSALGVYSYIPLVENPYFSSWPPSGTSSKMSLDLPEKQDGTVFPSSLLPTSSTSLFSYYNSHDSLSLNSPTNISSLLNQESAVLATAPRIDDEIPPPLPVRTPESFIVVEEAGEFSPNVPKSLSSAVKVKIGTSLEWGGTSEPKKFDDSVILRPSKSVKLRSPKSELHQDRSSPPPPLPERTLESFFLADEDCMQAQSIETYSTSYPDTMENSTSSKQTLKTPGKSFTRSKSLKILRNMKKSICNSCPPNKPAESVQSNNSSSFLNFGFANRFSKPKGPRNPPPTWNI
Nature of the test: LYP phosphatase inhibition for selectivity, dose response, selectivity assay for LMPTP inhibitor project, biochemical, fluorescence, LYP catalytic domain (AID 652006). It is filed as functional. The settings on record: read-out: IC50_Mean.

The target of test [22] is T5, Low molecular weight phosphotyrosine protein phosphatase. The format is functional. The following applies: read-out: IC50_Mean. The source holds these as a separate data set.
Test [23] is described as follows: ARNT/TACC3 interaction disruptors, potency, confirmation, biochemical, AlphaScreen, cherry-picked samples (AID 651703).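 Also: His-tagged ARNT PAS-B domain paired with GST-TACC3 E629A dimer coactivator fragment; potency of inhibitors that break up the complex and lower AlphaScreen signal.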 The format is functional, Homo sapiens.
Test [24] concerns the target Hepatocyte nuclear factor 4-alpha (Homo sapiens, UniProt P41235). The format is functional, cell-based.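 Also: biochemical luminescence-based dose-response counterscreen measuring inhibition of HNF4 dimerization, run alongside a screen for blockers of ABHD5–perilipin-5 interaction; split luciferase complementation of HNF4 fusion proteins in cell lysate measuring dimerization.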

The source made the active and inactive calls.

Chain of Dual specificity protein phosphatase 3 (P51452 whole entry): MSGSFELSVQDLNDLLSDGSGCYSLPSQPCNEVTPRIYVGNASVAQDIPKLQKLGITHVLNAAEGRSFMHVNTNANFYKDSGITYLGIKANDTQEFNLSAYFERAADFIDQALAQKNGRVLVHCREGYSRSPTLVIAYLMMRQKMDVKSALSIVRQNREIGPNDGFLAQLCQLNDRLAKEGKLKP
Chain of Hepatocyte nuclear factor 4-alpha (P41235 whole entry, the tested form may be a part): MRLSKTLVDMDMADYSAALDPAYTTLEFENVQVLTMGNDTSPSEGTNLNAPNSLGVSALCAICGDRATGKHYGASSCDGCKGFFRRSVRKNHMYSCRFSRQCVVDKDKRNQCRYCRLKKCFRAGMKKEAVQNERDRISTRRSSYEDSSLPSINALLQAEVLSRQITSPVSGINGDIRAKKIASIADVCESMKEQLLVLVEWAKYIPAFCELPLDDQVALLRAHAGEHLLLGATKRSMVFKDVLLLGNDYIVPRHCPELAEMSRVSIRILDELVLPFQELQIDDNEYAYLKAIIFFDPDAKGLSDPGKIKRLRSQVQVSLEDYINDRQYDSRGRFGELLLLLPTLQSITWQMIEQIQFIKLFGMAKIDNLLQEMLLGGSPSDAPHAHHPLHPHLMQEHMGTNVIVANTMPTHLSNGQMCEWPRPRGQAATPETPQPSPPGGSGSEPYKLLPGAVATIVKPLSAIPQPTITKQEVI
Chain of Adenosylmethionine-8-amino-7-oxononanoate aminotransferase (P9WQ81 whole entry): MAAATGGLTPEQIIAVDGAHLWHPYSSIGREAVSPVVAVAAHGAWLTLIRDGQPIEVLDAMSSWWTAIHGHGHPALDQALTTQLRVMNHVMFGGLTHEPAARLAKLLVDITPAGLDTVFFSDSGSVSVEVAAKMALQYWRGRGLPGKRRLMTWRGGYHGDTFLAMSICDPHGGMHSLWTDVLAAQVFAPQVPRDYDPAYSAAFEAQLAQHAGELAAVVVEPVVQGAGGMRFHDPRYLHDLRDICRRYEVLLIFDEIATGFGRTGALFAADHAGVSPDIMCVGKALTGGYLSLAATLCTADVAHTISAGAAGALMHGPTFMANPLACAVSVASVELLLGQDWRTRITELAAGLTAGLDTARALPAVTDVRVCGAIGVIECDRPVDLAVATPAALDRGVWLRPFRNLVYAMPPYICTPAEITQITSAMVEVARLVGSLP
Chain of Tyrosine-protein phosphatase non-receptor type 5 (P54829 whole entry): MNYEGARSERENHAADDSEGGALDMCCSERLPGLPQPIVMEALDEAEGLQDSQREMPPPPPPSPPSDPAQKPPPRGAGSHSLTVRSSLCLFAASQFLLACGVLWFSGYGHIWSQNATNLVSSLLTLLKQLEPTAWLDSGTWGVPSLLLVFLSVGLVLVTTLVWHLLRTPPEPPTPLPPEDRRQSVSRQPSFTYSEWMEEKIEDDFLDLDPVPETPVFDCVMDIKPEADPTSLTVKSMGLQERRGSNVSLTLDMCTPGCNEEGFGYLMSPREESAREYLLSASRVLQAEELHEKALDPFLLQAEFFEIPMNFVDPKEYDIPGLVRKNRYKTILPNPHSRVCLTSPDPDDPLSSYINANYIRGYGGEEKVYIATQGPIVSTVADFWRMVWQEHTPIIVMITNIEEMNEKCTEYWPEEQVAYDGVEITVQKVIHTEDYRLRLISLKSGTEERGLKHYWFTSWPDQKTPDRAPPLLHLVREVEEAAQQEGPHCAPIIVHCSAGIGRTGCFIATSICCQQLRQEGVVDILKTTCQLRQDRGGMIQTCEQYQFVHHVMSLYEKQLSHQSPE
Chain of Tyrosine-protein phosphatase non-receptor type 11 (Q06124 whole entry, the tested form may be a part): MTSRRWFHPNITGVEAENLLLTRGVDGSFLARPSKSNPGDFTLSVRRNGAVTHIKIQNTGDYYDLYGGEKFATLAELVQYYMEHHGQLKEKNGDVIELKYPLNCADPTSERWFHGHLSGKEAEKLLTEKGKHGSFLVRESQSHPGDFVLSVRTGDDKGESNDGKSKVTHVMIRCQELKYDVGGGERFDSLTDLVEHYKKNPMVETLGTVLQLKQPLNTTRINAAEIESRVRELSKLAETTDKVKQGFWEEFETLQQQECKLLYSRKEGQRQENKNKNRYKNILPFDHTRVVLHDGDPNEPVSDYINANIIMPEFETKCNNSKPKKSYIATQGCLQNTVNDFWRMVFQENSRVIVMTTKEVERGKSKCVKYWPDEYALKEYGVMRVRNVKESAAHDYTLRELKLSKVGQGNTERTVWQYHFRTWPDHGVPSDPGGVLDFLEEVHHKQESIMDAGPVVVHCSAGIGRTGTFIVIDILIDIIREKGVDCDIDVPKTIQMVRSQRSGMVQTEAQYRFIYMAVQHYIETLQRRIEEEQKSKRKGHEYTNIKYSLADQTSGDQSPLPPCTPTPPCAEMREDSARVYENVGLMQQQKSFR
Chain of Melanocortin receptor 4 (P32245 whole entry): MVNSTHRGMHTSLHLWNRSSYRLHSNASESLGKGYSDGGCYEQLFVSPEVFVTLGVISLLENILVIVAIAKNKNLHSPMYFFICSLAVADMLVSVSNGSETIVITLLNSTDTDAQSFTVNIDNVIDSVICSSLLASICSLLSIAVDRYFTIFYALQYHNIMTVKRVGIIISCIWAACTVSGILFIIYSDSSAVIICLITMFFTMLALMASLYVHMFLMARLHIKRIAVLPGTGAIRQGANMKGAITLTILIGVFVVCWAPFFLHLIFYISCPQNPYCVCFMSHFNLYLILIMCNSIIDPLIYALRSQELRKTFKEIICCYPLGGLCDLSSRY
Chain of Ras and Rab interactor 1/Tyrosine-protein kinase ABL1 (P00519 whole entry): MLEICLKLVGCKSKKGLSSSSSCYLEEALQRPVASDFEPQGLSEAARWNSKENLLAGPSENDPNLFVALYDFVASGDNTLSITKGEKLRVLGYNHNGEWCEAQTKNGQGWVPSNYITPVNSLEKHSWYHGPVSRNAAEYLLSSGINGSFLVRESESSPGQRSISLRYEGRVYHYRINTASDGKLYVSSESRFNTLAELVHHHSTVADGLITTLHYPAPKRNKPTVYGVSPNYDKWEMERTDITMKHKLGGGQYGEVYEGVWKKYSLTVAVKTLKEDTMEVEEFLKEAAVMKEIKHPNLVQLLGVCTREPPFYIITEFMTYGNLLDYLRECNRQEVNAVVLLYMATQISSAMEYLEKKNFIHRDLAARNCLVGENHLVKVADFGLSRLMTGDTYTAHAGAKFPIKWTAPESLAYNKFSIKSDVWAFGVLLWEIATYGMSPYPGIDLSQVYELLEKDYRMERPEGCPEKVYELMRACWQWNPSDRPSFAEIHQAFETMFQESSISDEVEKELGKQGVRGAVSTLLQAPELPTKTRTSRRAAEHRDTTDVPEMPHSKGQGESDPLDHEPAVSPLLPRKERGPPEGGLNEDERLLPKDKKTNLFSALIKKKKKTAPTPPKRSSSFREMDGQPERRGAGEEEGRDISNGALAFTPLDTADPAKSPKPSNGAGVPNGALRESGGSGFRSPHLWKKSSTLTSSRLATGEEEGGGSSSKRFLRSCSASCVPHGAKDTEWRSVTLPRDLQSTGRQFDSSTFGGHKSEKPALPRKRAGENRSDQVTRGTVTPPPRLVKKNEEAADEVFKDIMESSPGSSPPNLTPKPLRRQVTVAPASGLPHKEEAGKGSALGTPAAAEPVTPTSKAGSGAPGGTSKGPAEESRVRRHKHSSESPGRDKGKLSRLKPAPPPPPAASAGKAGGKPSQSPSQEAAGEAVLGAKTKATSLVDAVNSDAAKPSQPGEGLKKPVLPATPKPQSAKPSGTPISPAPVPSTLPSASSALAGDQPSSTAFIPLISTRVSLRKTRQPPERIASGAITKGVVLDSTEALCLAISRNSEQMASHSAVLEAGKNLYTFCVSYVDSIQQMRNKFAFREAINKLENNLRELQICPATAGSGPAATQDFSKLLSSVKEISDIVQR
Chain of Ras and Rab interactor 1/Tyrosine-protein kinase ABL1 (Q13671 whole entry): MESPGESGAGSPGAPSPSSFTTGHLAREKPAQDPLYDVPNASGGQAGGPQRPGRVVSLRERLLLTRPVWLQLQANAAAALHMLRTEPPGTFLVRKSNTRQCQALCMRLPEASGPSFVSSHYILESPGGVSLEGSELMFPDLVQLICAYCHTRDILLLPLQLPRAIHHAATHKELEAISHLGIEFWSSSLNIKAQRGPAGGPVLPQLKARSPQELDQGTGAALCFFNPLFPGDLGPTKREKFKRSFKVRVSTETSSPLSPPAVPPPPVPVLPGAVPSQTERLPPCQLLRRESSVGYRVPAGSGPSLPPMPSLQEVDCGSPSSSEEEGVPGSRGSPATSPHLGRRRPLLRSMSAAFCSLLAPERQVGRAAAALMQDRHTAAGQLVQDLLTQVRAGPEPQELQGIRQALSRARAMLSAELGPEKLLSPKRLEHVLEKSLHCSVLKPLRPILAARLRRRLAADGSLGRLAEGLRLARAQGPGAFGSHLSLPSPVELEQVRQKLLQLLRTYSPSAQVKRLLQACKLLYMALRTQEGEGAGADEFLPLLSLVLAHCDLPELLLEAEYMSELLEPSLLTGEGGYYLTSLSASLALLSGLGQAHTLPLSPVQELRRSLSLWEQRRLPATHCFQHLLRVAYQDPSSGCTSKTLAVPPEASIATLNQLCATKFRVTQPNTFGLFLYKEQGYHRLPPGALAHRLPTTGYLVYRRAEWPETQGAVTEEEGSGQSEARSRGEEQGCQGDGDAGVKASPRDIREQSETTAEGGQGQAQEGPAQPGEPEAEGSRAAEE

On to `CCOC(=O)N1CCN(C(=O)C2CCN(c3ncnc4c3sc3cccc(F)c34)CC2)CC1`, for which the IC50 in test [1] was 1.05 µM (active); in [2] it was 13.8 µM (active); in test [3], 1.49 µM (active); in [4] it was 14.2 µM (inactive).

For orientation: AC50 means the concentration at which the activity in the assay is half-maximal. As for `CC(=O)c1ccc(C(=O)NC2CCCN(Cc3ccccc3F)C2)s1` (stereo unspecified), the concentration at half-maximal activity (AC50) in [5] was 4.26 µM (active).

For orientation: EC50 means the concentration at which the effect is half-maximal. Broadly, the CC50 is the concentration giving 50% cytotoxicity. Consider `Cc1cc(C)c2sc(N(CCCN(C)C)C(=O)COc3ccc(Cl)cc3)nc2c1`, for which the EC50 was > 89.2 µM (inactive) on Melanocortin receptor 4, > 54.7 µM (inactive) on Insulin-degrading enzyme [6], > 55.9 µM (inactive) in the test with HEK293 [8] and > 54.7 µM (inactive) at Insulin-degrading enzyme [9]. Moreover, the IC50 with HEK293 [7] is 26.2 µM (inactive). In addition, the CC50 in test [10] is > 40 µM (active).

`COc1cc(NC(=O)C2CCCN(S(=O)(=O)c3cccc4nsnc34)C2)cc(OC)c1` (stereo unspecified): the AC50 in test [11] is 118 µM (active).

Consider `CCn1c(SCCC(C)C)nnc1-c1c[nH]c2ccccc12`, for which the IC50 in [12] was 2.41 µM (active); in test [2], 0.955 µM (active).

For the molecule `CN1CC[C@@]2(C)c3cc(O)ccc3N(C)[C@@H]12`, in test [13], the AC50 is 97.2 µM (active). In addition, the IC50 in [14] is 3.53 µM (active); in test [15], 8.51 µM (active).

`O=C(N/N=C/c1ccc(OC(=O)c2cccs2)cc1)c1cccc(F)c1`: the IC50 in test [16] was 9.39 µM (active); in [17] it was 1.37 µM (active); in test [18], 3.55 µM (active); in test [19], 2.45 µM (active); in test [20] it was 17.2 µM (active); in test [21] it was 24.9 µM (inactive). For the same molecule, the IC50 in test [22] was 11.2 µM (active).

With `C/C=C/c1ccc([C@H]2[C@@H](CO)N(Cc3ccccn3)[C@@H]2CNC(C)=O)cc1`, the AC50 in [23] was 93.3 µM (active).

Take `CC(C)(C)NC(=O)C(c1ccc(C(F)(F)F)cc1)n1c(=O)c(-c2ccco2)nc2ccccc21` (stereo unspecified): the IC50 in [24] was 1.81 µM (active).

For the origin of these results see ChEMBL document CHEMBL1201862, “PubChem BioAssay data set” (2004).
